Test system: CXCL10 secretion induced by poly(I:C) in HaCaT cells
Assay: poly(I:C)-induced CXCL10 secretion assay in HaCaT cells (ELISA)
Assay type: cell-based, Human
Details: poly(I:C) 20 μg/ml, 48 hours
Procedure: In another CXCL10 assay, immortalized keratinocytes (HaCaTs) cells (AddexBio #T0020001) were cultured in DMEM (Thermo Fisher #10566-016) supplemented with 10% FBS and 1% penicillin/streptomycin. 1×10^5 HaCaT cells were seeded per well of a 24-well culture dish in 400 μl culture medium. Once confluent, medium was aspirated and cells were pretreated with 200 μl of DMSO vehicle (0.1%) or 3-fold serial dilutions ([…]) of 7-(2-(methyloxy)-6-{[(4-methyl-2-pyridinyl)methyl]oxy}-phenyl)-2,3,4,5-tetrahydro-1H-3-benzazepine (Compound 1) for 30 minutes at 37° C. with 5% CO2. After pre-treatment, 200 μl of poly(I:C) at 40 μg/ml was added per well (without removal of pre-treatment medium), making the final treatment concentration 20 μg/ml. Additional compound and/or DMSO was included to maintain concentrations. All samples received 0.1% DMSO during both pre-treatment and treatment phases. Cells were returned to the incubator for 48 hours. Each condition had biological triplicates.
At 48 hours, supernatants were collected, centrifuged to pellet debris, and then re-collected. CXCL10 secreted into the supernatant was measured by the Human CXCL10/IP-10 Quantikine ELISA Kit (R&D Systems #DIP 100) according to the manufacturer's protocol. […]

COc1cccc(OCc2cc(C)ccn2)c1-c1ccc2c(c1)CCNCC2 [Compound 1, 7-(2-(methyloxy)-6-{[(4-methyl-2-pyridinyl)methyl]oxy}-phenyl)-2,3,4,5-tetrahydro-1H-3-benzazepine]
CXCL10 secretion induced by poly(I:C), percentage of maximum stimulation (vehicle = 100%) (30 min pre-treatment, supernatant ELISA, FIG. 1): dose-dependent decrease | dose concentration at which maximal inhibition of CXCL10 secretion was observed (highest concentration tested): 10 µM
